Laboratory results: patent US6831199B1, “Pyrimidine compounds and derivatives thereof” (G. D. Searle & Co., priority 1995, dated 2004)
Where a name gives a salt, the structure may show the parent alone.

Assays:
[1] = target: T1, Human vitronectin receptor (αvβ3) (Homo sapiens, UniProt P05106+P06756); test: Vitronectin adhesion assay (solid phase receptor assay, competition with biotinylated vitronectin); format: binding; details: read-out: AvB3 IC50
T1 construct: Human vitronectin receptor (αvβ3) was purified from human placenta; from tissue; host or cells: human placenta
Summary of the method: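 Purified human αvβ3 coated overnight at 4 °C in TBS with 1.0 mM Ca++, Mg++, Mn++, pH 7.4; compounds (top final 1.0×10^−4 M) competed with 1 nM biotinylated vitronectin for 2 h at room temperature. Bound ligand detected by HRP anti-biotin/OPD at A450; values normalized to no-competitor controls, four-parameter curve fit.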

[2] = target: T2, Human fibrinogen receptor (αIIbβ3) (Homo sapiens, UniProt P05106+P08514); test: Purified IIb/IIIa receptor assay (solid phase receptor assay, competition with biotinylated vitronectin); format: binding; details: read-out: IIb/IIIa IC50
T2 construct: Human fibrinogen receptor (αIIbβ3) was purified from outdated platelets; from tissue; host or cells: outdated human platelets
Summary of the method: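 Competition format: 1 nM biotinylated vitronectin plus test compound (highest 1.0×10^−4 M), 2 h at room temperature on wells coated with platelet-derived αIIbβ3. Buffer was TBS containing 1.0 mM Ca, Mg, Mn, pH 7.4. HRP anti-biotin readout at 450 nm; normalized to maximum binding, four-parameter curve fit.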

Q: With CNC(=NC#N)Nc1cccc(C(=O)NCC(=O)NC(CC(=O)O)c2cc(Cl)cc(Cl)c2)c1 (racemic) [Example 198, (±)3,5-dichloro-β-[[2-[[[3-[(cyanoimino)(methylamino)methyl]amino]phenyl]carbonyl]amino]acetyl]amino]benzenepropanoic acid] as the molecule, how does the IC50 [1] read?
A: The IC50 was 0.114 µM.

Q: What about the IC50 [2] of the same molecule?
A: Its IC50 is 37.8 µM.

Q: With N=C(N)Nc1cc(C(=O)O)cc(C(=O)NCC(=O)NC(CC(=O)O)c2cc(Cl)cc(Cl)c2)c1 (stereo not drawn) [Example 290, β-[[2-[[[3-[(aminoiminomethyl)amino]-5-carboxyphenyl]carbonyl]amino]acetyl]amino]-3,5-dichlorobenzenepropanoic acid, trifluoroacetate salt] as the molecule, how does the IC50 [1] read?
A: The IC50 was 0.00162 µM.

Q: And the IC50 [2]?
A: The IC50 was 1.02 µM.

Q: What does the source list for O=C(O)CC(NC(=O)CNC(=O)c1cccc(Nc2nc3ccccc3o2)c1)c1cccnc1 (stereo not drawn) [Example 286, β-[[2-[[[3-[[benzoxazol-2-yl)amino]phenyl]carbonyl]amino]acetyl]amino]pyridine-3-propanoic acid, trifluoroacetate salt]?
A: IC50 [1]: 0.413 µM; IC50 [2]: 8.09 µM

Q: Which results are given for Cc1ccc(C(=O)NCC(=O)NC(CC(=O)O)c2cccnc2)cc1N (stereo not drawn) [Example 84, β-[[2-[[(3-amino-4-methylphenyl)carbonyl]amino]acetyl]amino]pyridine-3-propanoic acid, bis(trifluoroacetate)salt]?
A: IC50 [1]: 2.8 µM; IC50 [2]: 0.246 µM

Q: What does the source list for COc1cc(C(CC(=O)O)NC(=O)CNC(=O)c2cccc(NC(=N)N)c2)cc2c1OCO2 (stereo not drawn) [Example 256, β-[[2-[[[3-[(aminoiminomethyl)amino]phenyl]carbonyl]amino]acetyl]amino]-4-methoxy-1,3-benzodioxole-6-propanoic acid, trifluoroacetate salt]?
A: IC50 [1]: 0.00058 µM; IC50 [2]: 0.022 µM

Q: For CCOC(=O)CC(NC(=O)CNC(=O)c1cccc(NC(N)=S)c1)c1ccccc1 (stereo not drawn) [Example 116, ethyl β-[[2-[[[3-[(aminothioxomethyl)amino]phenyl]carbonyl]amino]acetyl]amino]benzenepropanoate], which IC50 [1] is on record?
A: Its IC50 is 15.5 µM.

Q: And the IC50 [2]?
A: The IC50 was over 100 µM.

Q: Which results are given for Cc1ccc(C)c(C(CC(=O)O)NC(=O)CNC(=O)c2cccc(NC(=N)N)c2)c1 (racemic) [Example 181, (±)β-[[2-[[[3-[(aminoiminomethyl)amino]phenyl]carbonyl]amino]acetyl]amino]-2,5-dimethylbenzenepropanoic acid, trifluoroacetate salt]?
A: IC50 [1]: 0.132 µM; IC50 [2]: 22.8 µM

Q: What does the source list for N=C(N)Nc1cccc(C(=O)NCC(=O)NC(CC(=O)O)c2cccc(Cl)c2)c1 (racemic) [Example 183, (±)β-[[2-[[[3-[(aminoiminomethyl)amino]phenyl]carbonyl]amino]acetyl]amino]-3-chlorobenzenepropanoic acid, trifluoroacetate salt]?
A: IC50 [1]: 0.00158 µM; IC50 [2]: 0.258 µM

Q: How did the IC50 [1] turn out when N=C(N)Nc1cccc(C(=O)NCC(=O)NC(CC(=O)O)c2cc(Cl)cc(Cl)c2Cl)c1 (stereo not drawn) [Example 254, β-[[2-[[[3-[(aminoiminomethyl)amino]phenyl]carbonyl]amino]acetyl]amino]-2,3,5-trichlorobenzenepropanoic acid, trifluoroacetate salt] was run?
A: The IC50 was 0.0165 µM.

Q: And the IC50 [2]?
A: The IC50 was 6.91 µM.

Q: For NC(=S)Nc1cccc(C(=O)NCC(=O)NC(CC(=O)O)c2cc(Cl)cc(Cl)c2)c1 (racemic) [Example 206, (±)β-[[2-[[[3-[(aminothioxomethyl)amino]phenyl]carbonyl]amino]acetyl]amino]-3,5-dichlorobenzenepropanoic acid], which IC50 [1] is on record?
A: The IC50 was 0.0785 µM.

Q: And the IC50 [2]?
A: The IC50 was 22 µM.

Q: How did the IC50 [1] turn out when N=C(N)Nc1cccc(C(=O)NCC(=O)NC(CC(=O)O)C(F)(F)F)c1 (stereo not shown) [Example 261, 3-[[2-[[[3-[(aminoiminomethyl)amino]phenyl]carbonyl]aminoacetyl]amino]-4,4,4-trifluorobutanoic acid, trifluoroacetate salt] was run?
A: The IC50 was 0.00647 µM.

Q: And the IC50 [2]?
A: Its IC50 is 4.71 µM.

Q: C/N=C(\NC)Nc1cccc(C(=O)NCC(=O)NC(CC(=O)O)c2cc(Cl)cc(Cl)c2)c1 (racemic) [Example 294, (±)3,5-dichloro-β-[[2-[[[3-[[(methylamino)(methylimino)methyl]amino]phenyl]carbonyl]amino]acetyl]amino]benzenepropanoic acid, trifluoroacetate salt] was tested. Which IC50 [1] did it give?
A: The IC50 was 0.173 µM.

Q: What about the IC50 [2] of the same molecule?
A: Its IC50 is 1.99 µM.

Q: What does the source list for N=C(N)Nc1cccc(C(=O)NCC(=O)NC(CC(=O)O)c2cc(Cl)ccc2O)c1 (racemic) [Example 231, (±)β-[[2-[[[3-[(aminoiminomethyl)amino]phenyl]carbonyl]amino]acetyl]amino]-5-chloro-2-hydroxybenzenepropanoic acid, trifluoroacetate salt, monohydrate]?
A: IC50 [1]: 0.00299 µM; IC50 [2]: 0.424 µM

Q: Which results are given for O=C(O)CC(NC(=O)CNC(=O)c1cccc(NC2=NCCCN2)c1)c1cc(Br)cc(Br)c1 (racemic) [Example 211, (±)3,5-dibromo-β-[[2-[[[3-[(1,4,5,6-tetrahydropyrimidin-2-yl)amino]phenyl]carbonyl]amino]acetyl]amino]benzenepropanoic acid, trifluoroacetate salt]?
A: IC50 [1]: 0.00047 µM; IC50 [2]: 0.607 µM

Q: With CCOC(=O)CC(NC(=O)CNC(=O)c1cccc(NC(=O)Nc2ccccc2)c1)c1cccnc1 (stereo not drawn) [Example 107, ethyl β-[[2-[[[3-[[(phenylamino]carbonyl]amino]phenyl]carbonyl]amino]acetyl]amino]-pyridine-3-propanoate] as the molecule, how does the IC50 [1] read?
A: Its IC50 is 6.4 µM.

Q: And the IC50 [2]?
A: Its IC50 is 18.7 µM.

Q: For Cc1ccc(S(=O)(=O)NC(=O)Nc2cccc(C(=O)NCC(=O)NC(CC(=O)O)c3cccnc3)c2)cc1 (stereo not drawn) [Example 112, β-[[2-[[[3-[[[[(4-methylphenyl)sulfonyl]amino]carbonyl]amino]phenyl]carbonyl]amino]acetyl]amino]pyridine-3-propanoic acid, trifluoroacetate salt], which IC50 [1] is on record?
A: The IC50 was 0.284 µM.

Q: And the IC50 [2]?
A: The IC50 was 6.34 µM.

Q: What does the source list for CCOC(=O)CC(NC(=O)CNC(=O)c1cccc(NC(=N)N)c1)c1ccoc1 (racemic) [Example 51, (±)ethyl β-[[2-[[[3-[(aminoiminomethyl)amino]phenyl]carbonyl]amino]acetyl]amino]furan-3-propanoate, trifluoroacetate salt]?
A: IC50 [1]: 9.73 µM; IC50 [2]: > 100 µM

Q: What does the source list for COc1ccc(Br)cc1C(CC(=O)O)NC(=O)CNC(=O)c1cccc(NC(=N)N)c1 (stereo not drawn) [Example 257, β-[[2-[[[3-[(aminoiminomethyl)amino]phenyl]carbonyl]amino]acetyl]amino]-5-bromo-2-methoxybenzenepropanoic acid, trifluoroacetate salt]?
A: IC50 [1]: 0.0492 µM; IC50 [2]: 4.66 µM

Q: Which IC50 [1] does the source give for N=C(N)Nc1cc(NC(=N)N)cc(C(=O)NCC(=O)NC(CC(=O)O)c2cc(Cl)cc(Cl)c2)c1 (stereo not drawn) [Example 291, β-[[2-[[[3,5-bis[(aminoiminomethyl)amino]phenyl]carbonyl)amino]acetyl]amino]-3,5-dichlorobenzenepropanoic acid, bis(trifluoroacetate)salt] here?
A: The IC50 was 0.00124 µM.

Q: What about the IC50 [2] of the same molecule?
A: Its IC50 is 0.0374 µM.

Q: For N=C(N)Nc1cc(C(=O)NCC(=O)NC(CC(=O)O)c2cc(Cl)cc(Cl)c2)ccc1Cl (stereo not drawn) [Example 168, β-[[2-[[[3-[(aminoiminomethyl)amino]-4-chlorophenyl]carbonyl]amino]acetyl]amino]-3,5-dichlorobenzenepropanoic acid, trifluoroacetate salt], which IC50 [1] is on record?
A: Its IC50 is 0.00229 µM.

Q: And the IC50 [2]?
A: The IC50 was 0.269 µM.

Q: What does the source list for CCN/C(=N\C#N)Nc1cccc(C(=O)NCC(=O)NC(CC(=O)OCC)c2ccccc2)c1 (stereo not drawn) [Example 135, ethyl β-[[2-[[[3-[[(cyanoimino)(ethylamino)methyl]amino]phenyl]carbonyl]amino]acetyl]amino]benzenepropanoate]?
A: IC50 [1]: 50.7 µM; IC50 [2]: > 100 µM

Q: With O=C(O)CC(NC(=O)CNC(=O)c1cccc(NC2=NCCCS2)c1)c1cccnc1 (stereo not drawn) [Example 278, β-[[2-[[[3-[(5,6-dihydro-4H-thiazin-2-yl)amino]phenyl]carbonyl]amino]acetyl]amino]pyridine-3-propanoic acid, bis(trifluoroacetate)salt] as the molecule, how does the IC50 [1] read?
A: The IC50 was 0.00045 µM.

Q: And the IC50 [2]?
A: Its IC50 is 0.15 µM.

Q: For O=C(O)CC(NC(=O)CNC(=O)c1cccc(NC2=NCCCN2)c1)c1cc(Cl)cc(Br)c1 (racemic) [Example 215, (±)3-bromo-5-chloro-β-[[2-[[[3-[(1,4,5,6-tetrahydropyrimidin-2-yl)amino]phenyl]carbonyl]amino]acetyl]amino]-benzenepropanoic acid, trifluoroacetate salt], which IC50 [1] is on record?
A: The IC50 was 0.00041 µM.

Q: And the IC50 [2]?
A: The IC50 was 0.656 µM.

Q: For O=C(O)CC(NC(=O)CNC(=O)c1cccc(NC(=O)NCc2ccccn2)c1)c1cccnc1 (stereo not drawn) [Example 268, β[[2-[[[3-[[[(2-pyridinylmethyl)amino]carbonyl]amino]phenyl]carbonyl]amino]acetyl]amino]pyridine-3-propanoic acid, (bis)trifluoroacetate salt], which IC50 [1] is on record?
A: The IC50 was 0.00067 µM.

Q: And the IC50 [2]?
A: The IC50 was 7.43 µM.

Q: N=C(N)Nc1cccc(C(=O)NCC(=O)NC(CC(=O)O)c2cccc(OCC(=O)O)c2)c1 (stereo not drawn) [Example 260, β-[[2-[[[3-[(aminoiminomethyl)amino]phenyl]carbonyl]amino]acetyl]amino]-3-(carboxymethoxy)benzenepropanoic acid, trifluoroacetate salt] was tested. Which IC50 [1] did it give?
A: The IC50 was 0.00074 µM.

Q: And the IC50 [2]?
A: Its IC50 is 0.0653 µM.

Q: Which IC50 [1] does the source give for N=C(N)Nc1ccc(O)c(C(=O)NCC(=O)NC(CC(=O)O)c2cc(Cl)cc(Cl)c2)c1 (stereo not drawn) [Example 279, β-[[2-[[[5-[(aminoiminomethyl)amino]-2-hydroxyphenyl]carbonyl]amino]acetyl]amino]-3,5-dichlorobenzenepropanoic acid, trifluoroacetate salt] here?
A: The IC50 was 0.00712 µM.

Q: And the IC50 [2]?
A: The IC50 was 0.637 µM.
